Data published in PMC9115881, “Penicillin Derivatives Inhibit the SARS-CoV-2 Main Protease by Reaction with Its Nucleophilic Cysteine” (Journal of Medicinal Chemistry, 2022).
“Also recorded” adds a separate entry of the source. Like-named read-outs stand apart in the source and are kept apart here.

Key:
SARS-CoV-2 M^pro [1] = biological target: T1, SARS-CoV-2 M^pro (Severe acute respiratory syndrome coronavirus 2, UniProt P0DTD1); experiment: Protein-observed M^pro assay (SPE-MS), covalent modification; type: binding; conditions: M^pro 2.0 μM, inhibitor 11 or 33 μM, 45 min
Description: Selected compounds were tested for reaction with M^pro using protein-observed MS to inform on their mechanism of inhibition (Figure 2). Initially, M^pro was incubated with a ∼6-fold excess of the penicillin sulfone ester for 45 min and then analyzed by MS. […] When the inhibitor concentration was increased to ∼17-fold to account for the possibility of modifying all 12 M^pro cysteine or other residues, only low levels of a second covalent M^pro modification by the inhibitors were observed (Figure 2A–C). No evidence for fragmentation of the inhibitors once bound to M^pro was accrued.
Solutions of the inhibitors (100% DMSO) were dry-dispensed across 384-well polypropylene assay plates (Greiner) (for 11 or 33 μM top concentrations) using an ECHO 550 acoustic dispenser (Labcyte). DMSO was used as a negative control. Each reaction was performed in technical duplicates. The enzyme mixture (50 μL/well), containing M^pro (2.0 μM) in buffer (20 mM HEPES, pH 7.5), was dispensed across the penicillin-containing 384-well assay plates with a multidrop dispenser (Thermo Fischer Scientific). The reaction mixture was incubated for 45 min at 20 °C under an ambient atmosphere prior to analysis by SPE-MS.
MS analyses were performed using a RapidFire RF 365 high-throughput sampling robot (Agilent) attached to an iFunnel Agilent 6550 accurate mass Q-TOF mass spectrometer using a C4 cartridge and the same parameters as described above, with the exception of the gas temperature that was reduced to 225 °C. Protein spectra were deconvoluted for the m/z range 850–1350 Da, with a resolution of 2 Da and with a 10–60 kDa cutoff using the MaxEnt1 function in Agilent MassHunter Version 7. The deconvoluted files were extracted as csv files, sorted using Enthought Canopy GUI, and normalized and plotted using GraphPad Prism 9.

SARS-CoV-2 M^pro [2] = biological target: T1, SARS-CoV-2 M^pro; experiment: biochemical; type: biochemical; conditions: for M^pro inhibition, result in words: SPE-MS inhibition assay
[3] = Table 1, M^pro […], 37mer substrate 2.0 μM, 15 min preincubation, mean ± SD, n ≥ 2, read-out: IC50
[4] = read-out: IC50 [μM] using SPE-MS (37mer peptide)
[5] = Table S2, M^pro 0.15 μM, 37mer substrate peptide 2.0 μM, mean ± SD, n ≥ 2, read-out: IC50 [μM] using SPE-MS (37mer peptide)
[6] = Table 2, M^pro […], 37mer substrate 2.0 μM, mean ± SD, n ≥ 2, read-out: IC50
[7] = Table 3, M^pro […], 37mer substrate 2.0 μM, mean ± SD, n ≥ 2, read-out: IC50

## O=c1[nH]sc2ccccc12 [BIT, benzoisothiazolinone, reference compound]
SARS-CoV-2 M^pro [1]
  covalent modification of M^pro by protein-observed MS: non-selectively undergoes covalent

## CC1(C)S[C@@H]2[C@H](NC(=O)COc3ccccc3)C(=O)N2[C@H]1C(=O)O [Compound 12, penicillin V, reference compound]
SARS-CoV-2 M^pro [2]; [3]
  IC50: > 50 µM

## CC1(C)S[C@@H]2[C@H](NC(=O)COc3ccccc3)C(=O)N2[C@H]1C(=O)OCc1ccccc1 [Compound 13]
SARS-CoV-2 M^pro [2]; [3]
  IC50: > 50 µM

## CC1(C)[C@H](C(=O)OCc2ccccc2)N2C(=O)[C@@H](NC(=O)COc3ccccc3)C[C@H]2S1(=O)=O [Compound 17]
SARS-CoV-2 M^pro [1]
  covalent modification of M^pro by protein-observed MS: appears to inhibit M^pro via a different mechanism

## CC1(C)S[C@@H]2[C@H](NC(=O)COc3ccccc3)C(=O)N2[C@H]1C(=O)OCc1ccccc1F [Compound 19a]
SARS-CoV-2 M^pro [2]; [4]
  IC50: 47.7 ± 6.8 µM

## CC1(C)S[C@@H]2[C@H](NC(=O)COc3ccccc3)C(=O)N2[C@H]1C(=O)OCc1ccc(F)cc1 [Compound 19c]
SARS-CoV-2 M^pro [2]; [4]
  IC50: > 50 µM

## CC1(C)S[C@@H]2[C@H](NC(=O)COc3ccccc3)C(=O)N2[C@H]1C(=O)OCc1cc(F)cc(F)c1 [Compound 19d]
SARS-CoV-2 M^pro [2]; [5]
  IC50: > 50 µM

## CC1(C)S[C@@H]2[C@H](NC(=O)COc3ccccc3)C(=O)N2[C@H]1C(=O)OCc1ccc(F)cc1F [Compound 19e]
SARS-CoV-2 M^pro [2]; [5]
  IC50: > 50 µM

## CC1(C)S[C@@H]2[C@H](NC(=O)COc3ccccc3)C(=O)N2[C@H]1C(=O)OCc1c(F)cc(F)cc1F [Compound 19g]
SARS-CoV-2 M^pro [2]; [5]
  IC50: > 50 µM

## COc1ccc(COC(=O)[C@@H]2N3C(=O)[C@@H](NC(=O)COc4ccccc4)[C@H]3SC2(C)C)cc1 [Compound 19k]
SARS-CoV-2 M^pro [2]; [5]
  IC50: 45.8 ± 11 µM

## CC1(C)[C@H](C(=O)OCc2ccccc2F)N2C(=O)[C@@H](NC(=O)COc3ccccc3)[C@H]2S1(=O)=O [Compound 20a]
SARS-CoV-2 M^pro [2]; [6]
  IC50: 5.8 ± 2 µM
SARS-CoV-2 M^pro [1]
  covalent modification of M^pro by protein-observed MS: covalent reaction with Cys145

## CC1(C)[C@H](C(=O)OCc2cccc(F)c2)N2C(=O)[C@@H](NC(=O)COc3ccccc3)[C@H]2S1(=O)=O [Compound 20b]
SARS-CoV-2 M^pro [2]; [6]
  IC50: 9.2 ± 3.7 µM

## CC1(C)[C@H](C(=O)OCc2ccc(F)cc2)N2C(=O)[C@@H](NC(=O)COc3ccccc3)[C@H]2S1(=O)=O [Compound 20c]
SARS-CoV-2 M^pro [2]; [6]
  IC50: 7.4 ± 2.3 µM
SARS-CoV-2 M^pro [1]
  covalent modification of M^pro by protein-observed MS: covalent reaction with Cys145

## CC1(C)[C@H](C(=O)OCc2cc(F)c(F)c(F)c2)N2C(=O)[C@@H](NC(=O)COc3ccccc3)[C@H]2S1(=O)=O [Compound 20f]
SARS-CoV-2 M^pro [2]; [6]
  IC50: > 50 µM

## CC1(C)[C@H](C(=O)OCc2cc(C(F)(F)F)cc(C(F)(F)F)c2)N2C(=O)[C@@H](NC(=O)COc3ccccc3)[C@H]2S1(=O)=O [Compound 20h]
SARS-CoV-2 M^pro [2]
  M^pro inhibition, result in words: inhibited M^pro
SARS-CoV-2 M^pro [2]; [6]
  IC50: 35.3 ± 2.2 µM

## CC1(C)[C@H](C(=O)OCc2cccc([N+](=O)[O-])c2)N2C(=O)[C@@H](NC(=O)COc3ccccc3)[C@H]2S1(=O)=O [Compound 20i]
SARS-CoV-2 M^pro [2]
  M^pro inhibition, result in words: inhibited M^pro
SARS-CoV-2 M^pro [2]; [6]
  IC50: 13.3 ± 5.3 µM

## CC1(C)[C@H](C(=O)OCc2ccc([N+](=O)[O-])cc2)N2C(=O)[C@@H](NC(=O)COc3ccccc3)[C@H]2S1(=O)=O [Compound 20j, penicillin V sulfone para-nitrobenzyl ester]
SARS-CoV-2 M^pro [2]
  M^pro inhibition, result in words: do not, at least efficiently, inhibit M^pro
SARS-CoV-2 M^pro [2]; [6]
  IC50: > 50 µM

## COc1ccc(COC(=O)[C@@H]2N3C(=O)[C@@H](NC(=O)COc4ccccc4)[C@H]3S(=O)(=O)C2(C)C)cc1 [Compound 20k]
SARS-CoV-2 M^pro [2]
  M^pro inhibition, result in words: do not, at least efficiently, inhibit M^pro
SARS-CoV-2 M^pro [2]; [6]
  IC50: 31.1 ± 13.9 µM

## CC1(C)[C@H](C(=O)OCc2ccc3ccccc3c2)N2C(=O)[C@@H](NC(=O)COc3ccccc3)[C@H]2S1(=O)=O [Compound 20l]
SARS-CoV-2 M^pro [2]
  M^pro inhibition, result in words: do not, at least efficiently, inhibit M^pro
SARS-CoV-2 M^pro [2]; [6]
  IC50: > 50 µM

## CC1(C)[C@H](C(=O)OCc2ccc(C(F)(F)F)o2)N2C(=O)[C@@H](NC(=O)COc3ccccc3)[C@H]2S1(=O)=O [Compound 20m]
SARS-CoV-2 M^pro [2]
  M^pro inhibition, result in words: inhibit M^pro, albeit with slightly reduced potency compared to 10
SARS-CoV-2 M^pro [2]; [6]
  IC50: 10.2 ± 2.2 µM

## Cc1cc(COC(=O)[C@@H]2N3C(=O)[C@@H](NC(=O)COc4ccccc4)[C@H]3S(=O)(=O)C2(C)C)no1 [Compound 20n]
SARS-CoV-2 M^pro [2]
  M^pro inhibition, result in words: inhibit M^pro, albeit with slightly reduced potency compared to 10
SARS-CoV-2 M^pro [2]; Table 2, M^pro 0.15 μM, 37mer substrate 2.0 μM, mean ± SD, n ≥ 2, read-out: IC50
  IC50: 9 ± 1.3 µM

## COC(=O)[C@@H]1N2C(=O)[C@@H](NC(=O)COc3ccccc3)[C@H]2S(=O)(=O)C1(C)C [Compound 20o]
SARS-CoV-2 M^pro [2]; [6]
  IC50: 7.9 ± 1.4 µM

## CCOC(=O)[C@@H]1N2C(=O)[C@@H](NC(=O)COc3ccccc3)[C@H]2S(=O)(=O)C1(C)C [Compound 20p]
SARS-CoV-2 M^pro [2]; [6]
  IC50: 5.2 ± 0.6 µM
SARS-CoV-2 M^pro [1]
  covalent modification of M^pro by protein-observed MS: covalent reaction with Cys145

## CC1(C)[C@H](C(=O)OCC#N)N2C(=O)[C@@H](NC(=O)COc3ccccc3)[C@H]2S1(=O)=O [Compound 20r]
SARS-CoV-2 M^pro [2]; [6]
  IC50: 9.7 ± 3.3 µM

## CC1(C)[C@H](C(=O)OCc2ccccc2)N2C(=O)[C@@H](NC(=O)OCc3ccccc3)[C@H]2S1(=O)=O [Compound 25a]
SARS-CoV-2 M^pro [2]
  M^pro inhibition, result in words: abolished M^pro inhibition
SARS-CoV-2 M^pro [2]; [7]
  IC50: > 50 µM
SARS-CoV-2 M^pro [1]
  covalent modification of M^pro by protein-observed MS: do not covalently react with Cys145; also recorded: does not modify M^pro covalently; also recorded: but not 25a

## CC1(C)[C@H](C(=O)OCc2ccccc2)N2C(=O)[C@@H](NC(=O)CCc3ccccc3)[C@H]2S1(=O)=O [Compound 25b]
SARS-CoV-2 M^pro [2]; [7]
  IC50: 45.7 ± 0.9 µM
SARS-CoV-2 M^pro [1]
  covalent modification of M^pro by protein-observed MS: do not covalently react with Cys145

## CC1(C)[C@H](C(=O)OCc2ccccc2)N2C(=O)[C@@H](NC(=O)CNC(=O)c3ccccc3)[C@H]2S1(=O)=O [Compound 25d]
SARS-CoV-2 M^pro [2]; [7]
  IC50: > 50 µM

## CC1(C)[C@H](C(=O)OCc2ccccc2)N2C(=O)[C@@H](NC(=O)CNC(=O)OCc3ccccc3)[C@H]2S1(=O)=O [Compound 25e]
SARS-CoV-2 M^pro [2]; [7]
  IC50: > 50 µM

## CC(C)C[C@H](NC(=O)OCc1ccccc1)C(=O)N[C@@H]1C(=O)N2[C@@H](C(=O)OCc3ccccc3)C(C)(C)S(=O)(=O)[C@H]12 [Compound 25f]
SARS-CoV-2 M^pro [2]; [7]
  IC50: > 50 µM

## CC1(C)[C@H](C(=O)OCc2ccccc2)N2C(=O)[C@@H](NC(=O)COc3c(F)c(F)c(F)c(F)c3F)[C@H]2S1(=O)=O [Compound 25h]
SARS-CoV-2 M^pro [2]
  M^pro inhibition, result in words: did not alter M^pro inhibition substantially
SARS-CoV-2 M^pro [2]; [7]
  IC50: 5.3 ± 3.3 µM

## CC(Oc1ccccc1)C(=O)N[C@@H]1C(=O)N2[C@@H](C(=O)OCc3ccccc3)C(C)(C)S(=O)(=O)[C@H]12 (some centres unmarked) [Compound 25i]
SARS-CoV-2 M^pro [2]
  M^pro inhibition, result in words: substantially reduced inhibition
SARS-CoV-2 M^pro [2]; [7]
  IC50: > 50 µM

## CC(Oc1ccccc1)C(=O)N[C@@H]1C(=O)N2[C@@H](C(=O)OCc3ccc(F)cc3)C(C)(C)S(=O)(=O)[C@H]12 (some centres unmarked) [Compound 25j]
SARS-CoV-2 M^pro [2]
  M^pro inhibition, result in words: substantially reduced inhibition
SARS-CoV-2 M^pro [2]; [7]
  IC50: > 50 µM

## CC1(C)[C@H](C(=O)OCc2ccccc2)N2C(=O)[C@@H](NC(=O)COC3CCCCC3)[C@H]2S1(=O)=O [Compound 25m]
SARS-CoV-2 M^pro [1]
  covalent modification of M^pro by protein-observed MS: covalent reaction with Cys145

## CC1(C)[C@H](C(=O)OCc2ccccc2)N2C(=O)C(Br)(Br)[C@H]2S1(=O)=O [Compound 28, 6,6-dibromopenicillanic acid sulfone benzyl ester]
SARS-CoV-2 M^pro [2]; Table 4, M^pro 0.15 μM, 37mer substrate 2.0 μM, mean ± SD, n ≥ 2, read-out: IC50
  IC50: ~0.6 µM
SARS-CoV-2 M^pro [1]
  covalent modification of M^pro by protein-observed MS: initial covalent M^pro binding is followed by rapid subsequent reaction to give new species

## CC1(C)[C@H](C(=O)OCc2ccc([N+](=O)[O-])cc2)N2C(=O)C(Br)(Br)[C@H]2S1(=O)=O [Compound 31, 6,6-dibromopenicillanic acid sulfone para-nitrobenzyl ester]
SARS-CoV-2 M^pro [1]
  covalent modification of M^pro by protein-observed MS: initial covalent M^pro binding is followed by rapid subsequent reaction to give new species

## CC1(C)[C@H](C(=O)OCc2ccccc2)N2C(=O)C[C@H]2S1(=O)=O [Compound 34]
SARS-CoV-2 M^pro [2]; Table 4, M^pro […], 37mer substrate 2.0 μM, mean ± SD, n ≥ 2, read-out: IC50
  IC50: > 50 µM
